Experimental data published in paper PMC3454376, “Salidroside Improves Behavioral and Histological Outcomes and Reduces Apoptosis via PI3K/Akt Signaling after Experimental Traumatic Brain Injury” (PLoS ONE, 2012).

Tests used:
p-Bad = assay: Western blot, injured cortex; format: in vivo, mice
Procedure: (§1) Mice were anesthetized and positioned in a stereotaxic frame. LY294002 (200 nM in 0.5 µL of saline) or equal amount of physiological saline was intracerebroventricularly (icv) injected at 30 min before CCI as previously described. A 1 mm cranial burr hole was drilled into the skull. A 30-gauge needle on a Hamilton syringe was implanted into the lateral ventricle using stereotactic coordinates: 1.5 mm posterior to bregma and 1.0 mm right lateral to the midline, 2 mm in depth. LY294002 or saline was infused into the brain at a rate of 0.05 µL/min over 10 min with an infusion pump (KDS 310, KD Scientific Inc., Holliston, MA, USA), and the needle was left in place for an additional 20 min to prevent reflux. After the needle was removed, CCI procedure was conducted immediately. Sham-operated mice were infused icv with saline, but were not subjected to CCI.
(§2) Three sets of experiments were performed. The first set was to investigate the protective effects of salidroside. All animals were randomized into 1 of 3 groups (sham injury, CCI + vehicle, CCI + SALD 20). Surgery/injury, behavioral testing, and tissue analyses were performed by different individuals. Behavioral testing and tissue analyses were performed by individuals blinded to the treatment group. Salidroside (Cayman Chemical, Ann Arbor, MI, USA) dissolved in normal saline (0.25 mL) or a corresponding volume of vehicle (saline) was administered intraperitoneally 10 min following injury. Testing after injury was completed as follows: 1) behavioral testing at days 1, 4, 7, 14, 21, and 28 (n = 8–10 mice/group); 2) cresyl violet staining at day 28 (n = 9 mice/group); 3) histology, determination of brain water content, and western blot analysis at day 1 or 3 (n = 5–6 mice/group). To determine the optimal dose of salidroside, a pilot study was performed using 2 different doses (20 and 50 mg/kg) administered 10 min after injury, and neurological deficits and tissue damage were evaluated as the main outcomes. […] The second set of experiment was to assess the effect of the inhibition of PI3K/Akt with the specific PI3K inhibitor, LY294002 (Cell Signaling Technology, Danvers, MA, USA), on salidroside effects. Animals were randomized into 4 groups. Mice received either: 1) icv pretreatment of LY294002 followed by SALD 20 after CCI (S20Y group); or 2) icv pretreatment of saline (vehicle control) followed by SALD 20 after CCI (S20V group). 3) Mice were infused icv with saline and were subjected to sham injury. 4) Mice were infused icv with LY294002 and were subjected to sham injury. Testing after injury was completed as follows: 1) cresyl violet staining at day 28 (n = 6 mice/group); 2) western blot analysis at day 1 (n = 6 mice/group). The third set of experiment was performed to examine the neuroprotective time window afforded by salidroside. Mice received intraperitoneal SALD 20 or vehicle (saline) at 3 or 6 h following CCI and were sacrificed 1 day later for FJB staining and western blot analysis (n = 6 mice/group).
(§3) Brains of injured or sham animals were collected 1 day and 3 days post CCI or sham surgery, and a 4 mm coronal section from the injured area over the parietal cortex and ipsilateral hippocampus were collected. The protein samples were obtained from tissue homogenates in 300 µL of ice-cold reagent (T-PER reagent; Pierce Biotechnology, Rockford, IL, USA) with a complete mini protease inhibitor cocktail (Roche Molecular Biochemicals) centrifuged at 14000g for 30 min. Protein concentration was determined by Bradford reagent spectrophotometrically at A595. Equal amounts of protein samples were denatured in gel-loading buffer at 100°C for 5 min, and then loaded onto sodium dodecyl sulfate-polyacrylamide gels to be separated. Separated proteins were transferred to Immobilon-P membranes (Millipore, Billerica, MA, USA), blocked with the use of 5% milk in PBST and probed with primary antibodies. […]

p-FOXO1 = assay: Western blot, injured cortex; format: in vivo, mice
Procedure: as §1, §2, §3

p-Akt Ser473 = assay: Western blot, injured cortex; format: in vivo, mice
Procedure: as §1, §2, §3

p-Akt Thr308 = assay: Western blot, injured cortex; format: in vivo, mice; conditions: icv LY294002 30 min before CCI + SALD 20 mg/kg ip (S20LY); day 1; P<0.05
Procedure: as §1, §2, §3

[1] = test system: mice subjected to controlled cortical impact injury; assay: Residual cerebral tissue ratio, cresyl violet staining; format: in vivo; conditions: icv LY294002 30 min before CCI, then SALD 20 mg/kg ip (S20LY group); day 28; P<0.05 vs S20S
Procedure: All animal procedures were approved by the Animal Research Committee at Cheng Hsin General Hospital (Animal permit number CHIACUC 101–08), and all procedures complied with the Guide for the Care and Use of Laboratory Animals published by the US National Institutes of Health (NIH Publication No. 85–23, revised 1996). Animals were housed under a 12-h light/dark cycle and at constant temperature (21–25°C) and humidity (45–50%). They were allowed free access to pellet chow and water. TBI in mice was induced by a CCI injury model as previously described. Briefly, 8-week-old male C57BL/6 mice (weighing 22–25 g) were anesthetized through the use of intraperitoneal injection of sodium pentobarbital (65 mg/kg; Rhone Merieux, Harlow, UK) and placed in a stereotaxic frame. A 5 mm craniotomy was performed over the right parietal cortex, centered on the coronal suture and 0.1 mm lateral to the sagittal suture, and injury to dura was avoided. Injury was induced using a pneumatic piston with a rounded metal tip (2.5 mm diameter) that was angled 22.5° to the vertical so that the tip was perpendicular with the brain surface at the center of the craniotomy. The impact, with a velocity of […] and a deformation depth of 2 mm below the dura, was applied. The bone flap was immediately replaced and sealed, and the scalp was sutured. Body temperature was monitored throughout the surgery by a rectal probe; temperature was maintained at 37.0±0.5°C using a heated pad. Mice were placed in a heated cage to maintain body temperature, while recovering from anesthesia. Sham-operated mice underwent the same procedure as injured mice, but without CCI.
as §1
Three sets of experiments were performed. […] To determine the optimal dose of salidroside, a pilot study was performed using 2 different doses (20 and 50 mg/kg) administered 10 min after injury, and neurological deficits and tissue damage were evaluated as the main outcomes. […]

[2] = icv LY294002 30 min before CCI + SALD 20 mg/kg ip, day 1, P>0.05

## O=c1cc(N2CCOCC2)oc2c(-c3ccccc3)cccc12 [LY294002, reference compound]
p-Bad; [2]
  p-Bad level, S20LY versus S20V group: similar
p-Bad; icv LY294002, sham injury
  Bad phosphorylation in sham-operated mice: did not affect
p-FOXO1; icv LY294002 30 min before CCI + SALD 20 mg/kg ip (S20LY), day 1, P<0.05
  p-FOXO1 level, % of the S20V level: 41.6%
p-FOXO1; icv LY294002, sham injury
  FOXO1 phosphorylation in sham-operated mice: did not affect
p-Akt Ser473; [2]
  p-Akt Ser473 level, S20LY versus S20V group: similar
p-Akt Ser473; icv LY294002, sham injury
  Akt phosphorylation (Ser473 and Thr308) in sham-operated mice: did not affect
p-Akt Thr308
  p-Akt Thr308 level, % of the S20V level: 58.1%
[1]
  residual cerebral tissue ratio: 71.0±6.3%
